Measured values as given in US9096544B2, “Therapeutic compounds” (Wayne State University, priority 2009, dated 2015).

System: poly(ADP-ribose)polymerase (PARP)
Test: Test C: PARP cleavage
Format: cell-based
Settings: FFMA-AML and TF(v-SRC) cells
Excerpt: FIG. 5 illustrates compound 16-mediated inhibition of XIAP, c-IAP1, and phospho-Bad expression in FFMA-AML and TF(v-SRC) cells accompanied by the induction of PARP cleavage. A) XIAP, c-IAP and phospho-Bad protein expression following exposure to compound 16 assessed by Western blot. B)-D) Protein expression levels quantified using laser densitometry. The expression levels of XIAP, c-IAP1 and phospho-Bad were normalized to the respective α-tubulin level and compared to their relative levels in the controls, which were given an arbitrary value of 1.
The proteins c-IAP1, c-IAP2, and XIAP bind caspases resulting in inhibition of caspase activity (Jin H-S. et al., Cancer Res. 2009; 69:[…]). […] The Bcl-2 family member Bad enhances apoptosis and is inactivated through phosphorylation to phosphorylated Bad (Eisenmann K. M. et al., Cancer Res. 2003; 63:8330-8337). To assess modulation of anti-apoptotic protein expression during the induction of apoptosis in the AML cells by compound 16, the expression of XIAP, c-IAP1 and phospho-Bad as well as cleavage of the DNA-damage repair poly(ADP-ribose)polymerase (PARP) was assessed following exposure of the AML cells to compound 16.

Q: `O=C(O)/C=C/c1cnc(-c2ccc(O)c(C34CC5CC(CC(C5)C3)C4)c2)nc1` [Compound 16, (E)-3-[2-(3-(1-Adamantyl)-4-hydroxyphenyl)-5-pyrimidinyl]-2-propenoic acid] was tested. Which “cleavage of PARP” value did it give?
A: cleavage of PARP was noted
